Reference: US7098233B2 (priority 2001, dated 2006)
Like-named read-outs stand apart in the source and are kept apart here.

Assays:
[1] = molecular target: T1, rat 5-HT6 stably transfected to HEK293 (Rattus norvegicus, UniProt P31388); test: 5-HT6 receptor binding, [3H]-LSD displacement; details: for selectivity of binding for 5-HT6 receptor (in words): over other serotonin sites and other neurotransmitter receptors
T1 construct: expressed in transfected cells; host or cells: HEK293

[2] = molecular target: T2, human 5-HT7 receptor stably transfected to CHO cells (Homo sapiens, UniProt P34969); test: 5-HT7 receptor binding, [3H]-LSD displacement
T2 construct: expressed in transfected cells; host or cells: CHO

5-HT1a = molecular target: T3, 5-HT1a (Homo sapiens, UniProt P08908); test: Binding affinity for serotonin subtype 5-HT1a
T3 sequence (P08908 1-422): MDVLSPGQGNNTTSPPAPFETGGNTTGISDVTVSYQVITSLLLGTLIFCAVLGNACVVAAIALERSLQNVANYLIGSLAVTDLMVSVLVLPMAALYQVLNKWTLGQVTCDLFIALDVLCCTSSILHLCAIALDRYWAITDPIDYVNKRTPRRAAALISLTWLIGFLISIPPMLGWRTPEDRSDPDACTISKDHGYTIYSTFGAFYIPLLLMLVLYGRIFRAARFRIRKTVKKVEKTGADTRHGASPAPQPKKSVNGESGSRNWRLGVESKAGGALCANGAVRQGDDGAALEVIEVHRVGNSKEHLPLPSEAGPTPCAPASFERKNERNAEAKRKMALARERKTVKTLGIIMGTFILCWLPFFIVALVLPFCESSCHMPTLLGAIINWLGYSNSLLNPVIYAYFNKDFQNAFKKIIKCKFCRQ

5-HT1b = 5-HT1b (Homo sapiens, UniProt P28222); test: Binding affinity for serotonin subtype 5-HT1b
5-HT1d = 5-HT1d (Homo sapiens, UniProt P28221); test: Binding affinity for serotonin subtype 5-HT1d
5-HT2a = 5-HT2a (Homo sapiens, UniProt P28223); test: biochemical; assay type: binding
5-HT2b = 5-HT2b (Homo sapiens, UniProt P41595); test: Binding affinity for serotonin subtype 5-HT2b
5-HT2c = molecular target: T4, 5-HT2c (Homo sapiens, UniProt P28335); test: Binding affinity for serotonin subtype 5-HT2c
T4 sequence (P28335 33-458): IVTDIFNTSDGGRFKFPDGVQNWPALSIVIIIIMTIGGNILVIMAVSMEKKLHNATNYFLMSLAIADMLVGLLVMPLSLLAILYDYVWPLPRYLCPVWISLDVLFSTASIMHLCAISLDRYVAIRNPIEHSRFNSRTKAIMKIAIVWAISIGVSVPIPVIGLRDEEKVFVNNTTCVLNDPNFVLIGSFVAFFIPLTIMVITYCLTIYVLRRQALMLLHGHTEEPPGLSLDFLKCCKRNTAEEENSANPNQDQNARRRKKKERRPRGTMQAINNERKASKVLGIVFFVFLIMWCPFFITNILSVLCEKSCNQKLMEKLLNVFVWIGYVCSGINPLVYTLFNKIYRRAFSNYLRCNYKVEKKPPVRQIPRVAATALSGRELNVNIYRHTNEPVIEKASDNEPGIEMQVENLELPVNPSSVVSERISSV

5-HT3 = molecular target: T5, 5-HT3 (Homo sapiens, UniProt P46098); test: Binding affinity for serotonin subtype 5-HT3
T5 sequence (P46098 24-478): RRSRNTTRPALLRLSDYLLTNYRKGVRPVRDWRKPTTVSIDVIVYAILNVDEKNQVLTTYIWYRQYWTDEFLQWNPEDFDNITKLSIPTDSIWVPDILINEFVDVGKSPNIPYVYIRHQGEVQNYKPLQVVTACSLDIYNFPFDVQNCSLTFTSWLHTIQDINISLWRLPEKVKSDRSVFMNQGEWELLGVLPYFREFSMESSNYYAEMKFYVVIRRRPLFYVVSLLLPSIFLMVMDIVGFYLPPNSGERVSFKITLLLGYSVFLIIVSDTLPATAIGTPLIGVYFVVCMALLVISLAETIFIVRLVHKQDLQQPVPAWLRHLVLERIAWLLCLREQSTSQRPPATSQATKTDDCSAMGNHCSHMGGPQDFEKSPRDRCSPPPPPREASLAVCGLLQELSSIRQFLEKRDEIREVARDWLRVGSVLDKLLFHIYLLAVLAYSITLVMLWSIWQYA

5-HT4 = 5-HT4 (Homo sapiens, UniProt Q13639); test: Binding affinity for serotonin subtype 5-HT4
5-HT5a = 5-HT5a (Homo sapiens, UniProt P47898); test: Binding affinity for serotonin subtype 5-HT5a
5-HT transporter = 5-HT transporter (Homo sapiens, UniProt P31645); test: Binding affinity for 5-HT transporter
alpha1a adrenergic = alpha1a adrenergic (Homo sapiens, UniProt P35348); test: Receptor panel binding: alpha1a adrenergic
beta1 adrenergic = beta1 adrenergic (Homo sapiens, UniProt P08588); test: Receptor panel binding: beta1 adrenergic
D1 dopaminergic = D1 dopaminergic (Homo sapiens, UniProt P21728); test: Receptor panel binding: D1 dopaminergic
D2 dopaminergic = D2 dopaminergic (Homo sapiens, UniProt P14416); test: Receptor panel binding: D2 dopaminergic
D3 dopaminergic = D3 dopaminergic (Homo sapiens, UniProt P35462); test: Receptor panel binding: D3 dopaminergic
D4,4 dopaminergic = molecular target: T6, D4,4 dopaminergic (Homo sapiens, UniProt P21917); test: Receptor panel binding: D4,4 dopaminergic
T6 sequence (P21917 1-419): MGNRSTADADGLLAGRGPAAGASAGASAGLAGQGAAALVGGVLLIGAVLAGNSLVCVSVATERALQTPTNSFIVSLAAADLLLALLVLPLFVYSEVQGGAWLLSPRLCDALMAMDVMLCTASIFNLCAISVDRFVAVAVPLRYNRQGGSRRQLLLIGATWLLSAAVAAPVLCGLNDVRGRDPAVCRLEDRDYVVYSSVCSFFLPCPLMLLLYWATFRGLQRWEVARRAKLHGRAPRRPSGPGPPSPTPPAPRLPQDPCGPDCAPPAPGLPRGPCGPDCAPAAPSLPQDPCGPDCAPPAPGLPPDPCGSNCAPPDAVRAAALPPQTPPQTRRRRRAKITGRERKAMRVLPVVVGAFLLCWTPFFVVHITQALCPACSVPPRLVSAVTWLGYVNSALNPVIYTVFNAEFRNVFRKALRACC

D5 dopaminergic = D5 dopaminergic (Homo sapiens, UniProt P21918); test: Receptor panel binding: D5 dopaminergic
H1 histaminergic = H1 histaminergic (Homo sapiens, UniProt P35367); test: Receptor panel binding: H1 histaminergic
V1a of vasopressin = V1a of vasopressin (Homo sapiens, UniProt P37288); test: Receptor panel binding: vasopressin V1a
V1b of vasopressin = V1b of vasopressin (Homo sapiens, UniProt P47901); test: Receptor panel binding: vasopressin V1b
V2 of vasopressin = V2 of vasopressin (Homo sapiens, UniProt P30518); test: Receptor panel binding: vasopressin V2
NA transporter = NA transporter (Homo sapiens, UniProt P23975); test: Receptor panel binding: NA transporter
DA transporter = DA transporter (Homo sapiens, UniProt Q01959); test: Receptor panel binding: DA transporter
[3] = molecular target: T7, alpha1b adrenergic receptor (Homo sapiens, UniProt P35368); test: Receptor panel binding: alpha1b adrenergic; details: for interaction capability for alpha1b receptors lower than for 5-HT6 receptor: alpha1b versus 5-HT6
T7 sequence (P35368 1-520): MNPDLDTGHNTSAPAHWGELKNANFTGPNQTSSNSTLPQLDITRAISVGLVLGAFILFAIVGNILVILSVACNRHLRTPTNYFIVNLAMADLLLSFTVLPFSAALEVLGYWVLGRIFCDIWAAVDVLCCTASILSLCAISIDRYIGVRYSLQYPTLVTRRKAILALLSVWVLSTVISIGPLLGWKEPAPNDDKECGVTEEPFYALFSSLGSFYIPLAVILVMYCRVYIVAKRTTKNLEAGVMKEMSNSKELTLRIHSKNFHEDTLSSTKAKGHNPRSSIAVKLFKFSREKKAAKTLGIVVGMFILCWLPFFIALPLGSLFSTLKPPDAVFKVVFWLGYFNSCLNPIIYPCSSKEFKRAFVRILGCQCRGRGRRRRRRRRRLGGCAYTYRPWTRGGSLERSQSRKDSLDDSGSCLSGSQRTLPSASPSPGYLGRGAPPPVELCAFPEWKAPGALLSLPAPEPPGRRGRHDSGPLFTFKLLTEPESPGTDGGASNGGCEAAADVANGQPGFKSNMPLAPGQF

NMDA = test: Receptor panel binding: NMDA; details: read-out: affinity value, NMDA
[4] = molecular target: muscarinic (non-selective); test: Receptor panel binding: muscarinic; details: read-out: affinity value, muscarinic (non-selective)
opiate (non-selective) = test: Receptor panel binding: opiate; details: read-out: affinity value, opiate (non-selective)
PCP = test: Receptor panel binding: PCP; details: read-out: affinity (Ki), PCP
nicotinic receptors = test: Receptor panel binding: nicotinic receptors; details: read-out: affinity (Ki), nicotinic receptors
vasopressin V1 = test: Receptor panel binding: vasopressin V1; details: read-out: affinity (Ki), vasopressin V1

Chain of 5-HT1d (P28221 whole entry, species assumed): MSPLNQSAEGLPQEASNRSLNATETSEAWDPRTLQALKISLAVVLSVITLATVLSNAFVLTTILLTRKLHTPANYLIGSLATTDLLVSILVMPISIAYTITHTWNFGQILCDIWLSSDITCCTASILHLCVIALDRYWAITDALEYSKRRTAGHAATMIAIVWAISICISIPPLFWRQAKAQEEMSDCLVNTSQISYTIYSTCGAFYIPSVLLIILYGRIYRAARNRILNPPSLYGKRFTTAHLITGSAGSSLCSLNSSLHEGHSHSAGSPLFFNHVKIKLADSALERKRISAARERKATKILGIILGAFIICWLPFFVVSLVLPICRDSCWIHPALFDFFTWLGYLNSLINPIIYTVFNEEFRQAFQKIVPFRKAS
Chain of NA transporter (P23975 whole entry): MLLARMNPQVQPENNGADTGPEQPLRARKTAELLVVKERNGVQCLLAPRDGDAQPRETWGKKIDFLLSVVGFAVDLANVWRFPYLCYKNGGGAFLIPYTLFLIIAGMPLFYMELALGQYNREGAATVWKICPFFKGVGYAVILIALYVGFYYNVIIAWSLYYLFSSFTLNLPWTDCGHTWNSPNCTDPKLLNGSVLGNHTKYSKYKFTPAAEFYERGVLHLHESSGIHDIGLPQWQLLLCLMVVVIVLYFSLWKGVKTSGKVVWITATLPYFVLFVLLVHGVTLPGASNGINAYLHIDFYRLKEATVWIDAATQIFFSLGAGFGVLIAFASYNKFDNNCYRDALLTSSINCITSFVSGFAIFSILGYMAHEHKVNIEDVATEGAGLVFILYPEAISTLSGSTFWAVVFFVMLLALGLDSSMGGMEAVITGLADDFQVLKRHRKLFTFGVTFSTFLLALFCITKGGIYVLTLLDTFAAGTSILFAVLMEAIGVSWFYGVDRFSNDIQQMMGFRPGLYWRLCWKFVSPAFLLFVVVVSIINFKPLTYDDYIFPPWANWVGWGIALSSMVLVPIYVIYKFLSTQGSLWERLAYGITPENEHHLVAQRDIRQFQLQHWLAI
Chain of D2 dopaminergic (P14416 whole entry): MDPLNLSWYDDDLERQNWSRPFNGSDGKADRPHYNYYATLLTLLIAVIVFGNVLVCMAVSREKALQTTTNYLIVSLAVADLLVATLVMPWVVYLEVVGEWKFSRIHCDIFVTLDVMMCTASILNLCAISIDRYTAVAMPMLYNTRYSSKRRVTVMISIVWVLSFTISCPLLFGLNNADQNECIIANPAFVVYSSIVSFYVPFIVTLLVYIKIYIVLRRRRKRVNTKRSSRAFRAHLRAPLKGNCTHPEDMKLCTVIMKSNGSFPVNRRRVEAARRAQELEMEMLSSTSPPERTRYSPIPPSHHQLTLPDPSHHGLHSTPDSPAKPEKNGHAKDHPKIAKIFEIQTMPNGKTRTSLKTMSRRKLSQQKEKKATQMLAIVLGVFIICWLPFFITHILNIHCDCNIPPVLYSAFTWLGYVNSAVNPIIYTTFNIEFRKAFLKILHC
Chain of 5-HT5a (P47898 whole entry, species assumed): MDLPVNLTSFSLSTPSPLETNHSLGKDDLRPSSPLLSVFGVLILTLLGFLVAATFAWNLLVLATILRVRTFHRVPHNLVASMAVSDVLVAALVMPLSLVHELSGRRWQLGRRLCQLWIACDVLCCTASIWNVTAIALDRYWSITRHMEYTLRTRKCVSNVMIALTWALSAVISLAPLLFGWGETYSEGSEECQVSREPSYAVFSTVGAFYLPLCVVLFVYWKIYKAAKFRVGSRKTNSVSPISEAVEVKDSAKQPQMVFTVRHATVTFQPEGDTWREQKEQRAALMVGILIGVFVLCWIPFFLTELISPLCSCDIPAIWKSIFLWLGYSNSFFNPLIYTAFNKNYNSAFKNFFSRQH
T1 sequence (P31388 whole entry): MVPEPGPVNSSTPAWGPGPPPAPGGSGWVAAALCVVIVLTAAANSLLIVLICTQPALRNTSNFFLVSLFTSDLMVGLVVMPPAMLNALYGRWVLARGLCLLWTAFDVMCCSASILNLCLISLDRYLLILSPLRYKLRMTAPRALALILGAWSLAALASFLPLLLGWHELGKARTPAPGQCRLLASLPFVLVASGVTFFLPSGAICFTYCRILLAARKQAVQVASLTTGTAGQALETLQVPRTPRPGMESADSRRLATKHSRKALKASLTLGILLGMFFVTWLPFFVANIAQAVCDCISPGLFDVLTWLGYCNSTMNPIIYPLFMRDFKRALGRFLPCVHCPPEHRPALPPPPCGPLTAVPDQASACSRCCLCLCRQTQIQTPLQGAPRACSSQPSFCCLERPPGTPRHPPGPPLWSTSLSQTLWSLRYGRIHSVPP
T2 sequence (P34969 whole entry): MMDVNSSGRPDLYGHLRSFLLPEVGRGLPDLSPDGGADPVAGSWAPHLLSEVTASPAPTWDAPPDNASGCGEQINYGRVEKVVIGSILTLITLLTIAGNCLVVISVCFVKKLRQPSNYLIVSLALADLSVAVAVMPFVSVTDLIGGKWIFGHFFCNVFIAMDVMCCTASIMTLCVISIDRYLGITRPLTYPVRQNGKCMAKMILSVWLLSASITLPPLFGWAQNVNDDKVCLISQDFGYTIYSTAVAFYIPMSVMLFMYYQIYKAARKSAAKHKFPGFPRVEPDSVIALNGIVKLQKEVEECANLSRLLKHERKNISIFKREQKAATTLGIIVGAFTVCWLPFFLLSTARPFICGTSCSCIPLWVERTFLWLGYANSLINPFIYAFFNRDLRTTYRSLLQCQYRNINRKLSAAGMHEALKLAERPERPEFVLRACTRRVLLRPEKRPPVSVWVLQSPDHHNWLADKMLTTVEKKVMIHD
Chain of D1 dopaminergic (P21728 whole entry): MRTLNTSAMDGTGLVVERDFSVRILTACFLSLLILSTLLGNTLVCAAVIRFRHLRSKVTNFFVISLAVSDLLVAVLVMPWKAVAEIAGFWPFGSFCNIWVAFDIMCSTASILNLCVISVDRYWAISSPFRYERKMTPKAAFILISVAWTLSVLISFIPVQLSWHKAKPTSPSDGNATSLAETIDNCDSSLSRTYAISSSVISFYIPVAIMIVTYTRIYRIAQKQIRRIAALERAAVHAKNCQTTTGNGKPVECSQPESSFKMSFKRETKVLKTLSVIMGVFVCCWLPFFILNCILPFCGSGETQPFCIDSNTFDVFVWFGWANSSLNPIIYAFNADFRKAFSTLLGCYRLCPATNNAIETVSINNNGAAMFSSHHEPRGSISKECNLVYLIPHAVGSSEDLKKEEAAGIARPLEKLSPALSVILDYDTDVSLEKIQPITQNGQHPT
Chain of H1 histaminergic (P35367 whole entry): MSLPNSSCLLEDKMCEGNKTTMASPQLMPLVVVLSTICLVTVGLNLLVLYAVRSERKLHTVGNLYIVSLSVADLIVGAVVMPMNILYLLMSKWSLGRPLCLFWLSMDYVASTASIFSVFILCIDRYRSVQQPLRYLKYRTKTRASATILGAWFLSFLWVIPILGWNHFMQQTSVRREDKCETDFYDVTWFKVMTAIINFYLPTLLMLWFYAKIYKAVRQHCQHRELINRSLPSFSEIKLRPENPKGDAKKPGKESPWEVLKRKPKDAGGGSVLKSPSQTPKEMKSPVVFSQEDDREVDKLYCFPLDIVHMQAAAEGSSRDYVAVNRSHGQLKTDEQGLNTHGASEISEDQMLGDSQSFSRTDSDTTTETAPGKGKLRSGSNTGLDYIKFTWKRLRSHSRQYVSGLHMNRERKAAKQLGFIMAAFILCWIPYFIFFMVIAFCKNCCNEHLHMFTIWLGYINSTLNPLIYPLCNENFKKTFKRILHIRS
Chain of 5-HT transporter (P31645 whole entry): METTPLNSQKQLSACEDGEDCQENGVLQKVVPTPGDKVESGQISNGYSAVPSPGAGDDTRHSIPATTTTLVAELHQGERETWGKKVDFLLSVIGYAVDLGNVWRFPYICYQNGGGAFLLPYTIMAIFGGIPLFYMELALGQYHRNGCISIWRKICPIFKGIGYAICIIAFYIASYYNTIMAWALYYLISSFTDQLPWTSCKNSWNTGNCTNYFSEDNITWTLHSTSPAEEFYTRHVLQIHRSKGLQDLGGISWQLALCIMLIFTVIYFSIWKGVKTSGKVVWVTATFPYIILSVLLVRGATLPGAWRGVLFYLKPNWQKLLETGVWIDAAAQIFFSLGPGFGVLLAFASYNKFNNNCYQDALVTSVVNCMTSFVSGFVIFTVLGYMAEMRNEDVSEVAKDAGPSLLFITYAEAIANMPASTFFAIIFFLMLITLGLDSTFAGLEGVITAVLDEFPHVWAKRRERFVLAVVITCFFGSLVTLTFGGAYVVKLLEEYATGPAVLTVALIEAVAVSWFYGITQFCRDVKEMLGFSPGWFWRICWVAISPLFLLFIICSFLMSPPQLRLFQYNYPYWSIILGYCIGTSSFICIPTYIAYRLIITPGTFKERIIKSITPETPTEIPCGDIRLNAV
Chain of D3 dopaminergic (P35462 whole entry): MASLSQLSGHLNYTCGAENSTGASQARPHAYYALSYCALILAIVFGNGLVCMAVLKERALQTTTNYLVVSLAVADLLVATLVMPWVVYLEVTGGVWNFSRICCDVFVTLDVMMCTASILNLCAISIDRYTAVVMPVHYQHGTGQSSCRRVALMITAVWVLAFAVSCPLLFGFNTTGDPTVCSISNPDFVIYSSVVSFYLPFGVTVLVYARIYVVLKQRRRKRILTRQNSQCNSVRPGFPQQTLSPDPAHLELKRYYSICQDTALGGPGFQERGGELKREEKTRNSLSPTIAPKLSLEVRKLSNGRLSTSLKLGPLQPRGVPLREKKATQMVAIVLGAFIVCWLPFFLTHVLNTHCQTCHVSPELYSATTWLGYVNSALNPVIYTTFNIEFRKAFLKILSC

SMILES | IC50 [1] | Ki [1] | 5-HT6 binding affinity compared with Serotonin (in words) [1] | affinity for rat recombinant 5-HT6 receptor (in words) [1] | IC50 [2] | Ki [2] | affinity for human recombinant 5-HT7 receptor (in words) [2] | Ki (5-HT1a) | Ki (5-HT1b) | Ki (5-HT1d) | Ki (5-HT2b) | Ki (5-HT2c) | Ki (5-HT3) | Ki (5-HT4) | Ki (5-HT5a) | Ki (5-HT transporter) | Ki (D1 dopaminergic) | Ki (D2 dopaminergic) | Ki (D3 dopaminergic) | Ki (D4,4 dopaminergic) | other results
NCCc1c[nH]c2ccc(O)cc12 [Serotonin, reference compound] | 171 nM | 87 nM | – | – | – | – | – | – | – | – | – | – | – | – | – | – | – | – | – | – | –
CCc1[nH]c2ccc(Cl)cc2c1CCN(C)C [ST 2253, 5-Chloro-2-ethyl-N,N-dimethyltryptamine] | 52 nM | 26 nM | greater than that observed for Serotonin | high affinity | > 1000 nM | > 1 µM | negligible | ≥ 1000 nM | > 1000 nM | > 1000 nM | 84 nM | > 1000 nM | > 1000 nM | > 1000 nM | > 1000 nM | > 1000 nM | ≥ 1000 nM | ≥ 1000 nM | ≥ 1000 nM | ≥ 1000 nM | selectivity of binding for 5-HT6 receptor (in words) [1]: selective affinity for 5-HT6 receptor; Ki ([2]; read-out: Affinity (Ki) 5-HT7, Table 2, cell printed in μM): > 1 µM; Ki (5-HT2a): > 1000 nM; Ki (alpha1a adrenergic): ≥ 1000 nM; Ki (beta1 adrenergic): ≥ 1000 nM; Ki (D5 dopaminergic): ≥ 1000 nM; Ki (H1 histaminergic): ≥ 1000 nM; Ki (V1a of vasopressin): ≥ 1000 nM; Ki (V1b of vasopressin): ≥ 1000 nM; Ki (V2 of vasopressin): ≥ 1000 nM; Ki (NA transporter): ≥ 1000 nM; Ki (DA transporter): ≥ 1000 nM; Ki [3]: 69 nM; interaction capability for alpha1b receptors lower than for 5-HT6 receptor [3]: ~3 fold; melting point: 188 °C (dec.)
Cc1[nH]c2ccc(Cl)cc2c1CCN(C)C [ST 1936, 5-chloro-2-methyl-N,N-dimethyltryptamine] | 62 nM | 31 nM | greater than that observed for Serotonin | high affinity | 527 nM | 0.168 µM | moderate | > 1000 nM | > 1000 nM | > 1000 nM | > 1000 nM | > 1000 nM | > 1000 nM | > 1000 nM | > 1000 nM | > 1000 nM | ≥ 1000 nM | ≥ 1000 nM | ≥ 1000 nM | ≥ 1000 nM | Ki (alpha1a adrenergic): ≥ 1000 nM; Ki (beta1 adrenergic): ≥ 1000 nM; Ki (D5 dopaminergic): ≥ 1000 nM; Ki (H1 histaminergic): ≥ 1000 nM; Ki (V1a of vasopressin): ≥ 1000 nM; Ki (V1b of vasopressin): ≥ 1000 nM; Ki (V2 of vasopressin): ≥ 1000 nM; Ki (NA transporter): ≥ 1000 nM; Ki (DA transporter): ≥ 1000 nM; Ki [3]: 53 nM; interaction capability for alpha1b receptors lower than for 5-HT6 receptor [3]: about 2 fold; melting point: 126 to 127 °C
Cc1[nH]c2ccc(Br)cc2c1CCN(C)C [ST 1938, 5-bromo-2-methyl-N,N-dimethyltryptamine] | 62 nM | 32 nM | greater than that observed for Serotonin | high affinity | 158 nM | 0.047 µM | highest affinity | 947 nM | > 1000 nM | > 1000 nM | 154 nM | > 1000 nM | > 1000 nM | > 1000 nM | > 1000 nM | > 1000 nM | > 1000 nM | > 1000 nM | > 1000 nM | > 1000 nM | selectivity of binding for 5-HT6 receptor (in words) [1]: mixed activity for 5-HT6 and 5-HT7 serotonin receptors; Ki (5-HT2a): > 1000 nM; Ki (D5 dopaminergic): > 1000 nM; Ki (NMDA): > 1000 nM; Ki [4]: > 1000 nM; Ki (H1 histaminergic): > 1000 nM; Ki (opiate (non-selective)): > 1000 nM; Ki (V2 of vasopressin): > 1000 nM; Ki (NA transporter): > 1000 nM; Ki (DA transporter): > 1000 nM; Ki (PCP): > 1000 nM; Ki (nicotinic receptors): > 1000 nM; Ki (vasopressin V1): > 1000 nM; melting point: 135 to 136 °C
